Results as given in patent publication EP0851756B1, “USE OF ONDANSETRON IN THE MANUFACTURE OF A MEDICAMENT FOR THE TREATMENT OF TREMOR” (GLAXO GROUP LIMITED, priority 1995, dated 1997).
Where “and” joins values, the source holds several entries; their conditions need not be identical. Equal entries are not always repeated.

How the values were obtained:
Assay type in all cases: in vivo, patients
[1] = test system: cerebellar tremor caused by MS, cerebellar degeneration or drug toxicity; assay: Placebo-controlled, double blind, crossover study: manual co-ordination (spiral copying, word copying or line drawing) judged by blind observers; set-up: key to Spiral Writing drug: 0 = none; + = a little; ++ = moderate; +++ = a lot of improvement
Description: (§1) A placebo-controlled, double blind, crossover study of intravenous ondansetron in twenty patients with cerebellar tremor caused by MS, cerebellar degeneration or drug toxicity was conducted. Most had tremor based upon cerebellar involvement from MS; three had familial degenerative disorders involving the cerebellum and one had acquired lithium toxicity. The clinical information and prior treatment of the patients is outlined below in Table 1. Patients were randomly assigned to receive intravenous ondansetron (8mg or a placebo, consisting of normal saline). The drug was given by intravenous bolus injection. Patients were given the alternate agent at a later interval. The principal outcome measure was the change in manual co-ordination tasks as assessed by spiral copying, word copying or line drawing and the time to complete a nine-hole peg test. Only 12 patients had sufficient co-ordination to complete the nine-hole peg test. The clinical outcome was measured at baseline and one hour following the infusion. Figures 1 (a), (b) and (c) represent an attempt to copy a spiral by the first mentioned patient in Table 1. Figure 1(a) represents an attempt prior to treatment with ondansetron; figure 1(b) an attempt after receiving placebo; and figure 1 (c) an attempt after receiving ondansetron.

[2] = test system: cerebellar tremor caused by MS, cerebellar degeneration or drug toxicity; assay: Placebo-controlled, double blind, crossover study: time to complete a nine-hole peg test
Description: as §1, with “infusion.” for “infusion. Figures 1 (a), (b) and (c) represent an attempt to copy a spiral by the first mentioned patient in Table 1. Figure 1(a) represents an attempt prior to treatment with ondansetron; figure 1(b) an attempt after receiving placebo; and figure 1 (c) an attempt after receiving ondansetron.”

[3] = test system: cerebellar tremor caused by MS, cerebellar degeneration or drug toxicity; assay: Placebo-controlled, double blind, crossover study: subjective response and patient identification of treatment assignment; set-up: key to Subjective drug response: 0 = none; + = a little; ++ = moderate; +++ = a lot of improvement
Description: A placebo-controlled, double blind, crossover study of intravenous ondansetron in twenty patients with cerebellar tremor caused by MS, cerebellar degeneration or drug toxicity was conducted. Most had tremor based upon cerebellar involvement from MS; three had familial degenerative disorders involving the cerebellum and one had acquired lithium toxicity. The clinical information and prior treatment of the patients is outlined below in Table 1. Patients were randomly assigned to receive intravenous ondansetron (8mg or a placebo, consisting of normal saline). The drug was given by intravenous bolus injection. Patients were given the alternate agent at a later interval. The clinical outcome was measured at baseline and one hour following the infusion. Patient identification of treatment assignment was correct in 12/20 instances and this was based upon efficacy. None believed placebo to be better (p=0.014; Fisher exact ratio).

[4] = test system: cerebellar tremor caused by MS, cerebellar degeneration or drug toxicity; assay: Clinical observations: tolerability, long-term use, withdrawal, oral dosing
[5] = individual patients, 8mg intravenous bolus, baseline vs one hour following the infusion

Structure (SMILES): Cc1nccn1CC1CCc2c(c3ccccc3n2C)C1=O (stereo not drawn) [ondansetron, 1,2,3,9-tetrahydro-9-methyl-3-[(2-methyl-1H-imidazol-1-yl)methyl]-4H-carbazol-4-one]
- favourable clinical response, MS subgroup ([1]; MS subgroup of 16 patients, number with a response, p=0.001): 13
- favourable clinical response identified by a panel of three blind observers ([1]; entire study group, 8mg intravenous, p=0.009 vs placebo (Fisher exact ratio)): 13 of the 20
- Spiral Writing drug [1, 5]: + (6×) and +++ (4×) and ++ (4×) and 0 (5×)
- Spiral Writing drug, Ratio ([1]; patients with improvement / patients assessed, 8mg intravenous, placebo 1/19): 13/19
- 9 hole peg-drug ([2]; individual patients, 8mg intravenous bolus, one hour following the infusion): 110 secs and 63 secs and 155 secs and 55 secs (2×) and 48 secs and 180 secs and 85 secs and 57 secs and 45 secs and 70 secs and 29 secs
- 9 hole peg-drug (secs), Mean ([2]; mean of 12 patients, 8mg intravenous, placebo 87±12): 79 ± 13 s
- mean time for the completion of the nine hole peg test ([2]; ± standard error, 8mg intravenous, placebo 87 ± 12, p=0.04 (Mann Whitney, one tailed, paired)): 79 ± 13 s
- Patient identification of treatment assignment correct ([3]; based upon efficacy, none believed placebo to be better (p=0.014; Fisher exact ratio)): 12/20
- Subjective drug response [3, 5]: ++ (5×) and 0 (8×) and + (3×) and +++ (3×) and + (dysarthria)
- speech after treatment ([3]; one patient with cerebellar degeneration too disabled to complete the tasks (Cd2, Table 1)): improved speech
- Subjective drug response, Ratio ([3]; patients with improvement / patients assessed, 8mg intravenous, placebo 0/18): 12/20
- sustaining of the effect in the long term ([4]; long term use): could be sustained in the long term
- reproduction of the effect of intravenous ondansetron by oral dosing ([4]; oral ondansetron (8-16mg)): could be reproduced
- tolerability ([4]; patients with cerebellar tremor): well tolerated
- tremor after withdrawal of the medication ([4]; withdrawal): tremor returning to pre-study levels
